Measured values reported in patent publication US20240327417A1, “HETEROCYCLIC COMPOUNDS” (BeiGene Switzerland GmbH, priority 2021, published 2024).

Key:
[1] = target: T1, Full length DGKζ (in-house protein M1-V929) (Homo sapiens, UniProt Q13574); assay: Biochemical DGK IC50 assay (ADP-Glo, lipid micelle substrate), DGKζ; conditions: 0.5 nM enzyme, 140 μM ATP, 80 μM DAG, 1 hour preincubation, 1 hour reaction, room temperature, read-out: IC50s for DGKζ
T1 construct: His (N); TEV cleavage site (N); made in house; host or cells: Sf9 insect cells (baculovirus, Bac-to-Bac)
Protocol: (§1) Enzymatic reactions of DGKζ, DGKα and DGKδ were performed using ADP-Glo assay with lipid micelle substrate. […] Full length DGKα (D21-10BG, SignalChem) and full length DGKδ (D23-10G, SignalChem) were purchased. Lipid micelle was prepared by dissolving DAG (Sigma, 317505-10MG) and PS (Sigma, P7769-100MG) with chloroform which was firtherly removed by rotary evaporation. The obtained residue was resuspended in buffer containing 25 mM HEPES pH 7.0, 0.5 mM EDTA and 160 mM Octyl β-D glucopyranoside by vigorous mixing and ultrasonic (IID, Scientz).
(§2) The inhibition activities testing for the compound disclosed herein were carried out at room temperature in assay buffer containing 50 mM HEPES, 10 mM MgCl2, 0.01% BSA, 0.1 mM Na3VO4, 0.005% Tween-20 and 0.01 mM CaCl2. Compounds in DMSO were dispensed into wells of a black 384 well plate (Corning 4514) using D300e digital dispenser (Tecan). The ranges of compounds final concentration were 1.55˜10000 nM or 23.3˜150000 nM. 3 μL 2× enzyme solution was added to wells. […] After 1 hour reaction, 5 μL ADP-Glo reagent (Promga V9101) was added and incubated for 40 minutes. 10 μL Kinase Detection reagent was added and incubated for 30 minutes. Luminescence was measured on a microplate reader (PHERAstar FSX, BMG labtech). The IC50s are calculated based on inhibition of enzyme activity in the presence of increasing concentrations of compounds.
Human His-TEV-DGK-zeta-pFastBac1 and human baculovirus samples was generated using the Bac-to-Bac baculovirus expression system (Invitrogen) according to the manufacturer's protocol. The DNA used for expression of DGK-zeta, have SEQ ID Nos: 1. Baculovirus amplification was achieved using infected SF9 cells at 1:2000 virus/cells ratios, and grown for 96 hours at 27° C. post-transfected.
The expression scaled up for each protein was carried out in the […] from CORNING. 4 L of 3×10^6 cells/mL Sf9 cells (Expression System, Invitrogen) grown in SF900™ II SFM insect medium (Expression System) was infected with virus stock at 1:200 virus/cells ratio, and grown for 48 hours at 27° C. post-transfection. The infected cell culture was harvested by centrifugation at 6000 rpm for 15 min 4° C. in a SORVALL LYNX6000 centrifuge. The cell pellets were stored at −80° C.
Full length human DGKζ produced as described above, was purified from Sf9 baculovirus-infected insect cell paste. The cells were lysed using sonication method, and the lysates were clarified by centrifugation.

[2] = target: T2, Full length DGKα (D21-10BG, SignalChem) (Homo sapiens, UniProt P23743); assay: Biochemical DGK IC50 assay (ADP-Glo, lipid micelle substrate), DGKα; conditions: 7.5 nM enzyme, 140 μM ATP, 80 μM DAG, 1 hour preincubation, 1 hour reaction, room temperature, read-out: IC50s for DGKα
T2 construct: Full length DGKα (D21-10BG, SignalChem); purchased SignalChem D21-10BG
Protocol: as §1, §2

T1 sequence (Q13574 1-929 isoform Q13574-4): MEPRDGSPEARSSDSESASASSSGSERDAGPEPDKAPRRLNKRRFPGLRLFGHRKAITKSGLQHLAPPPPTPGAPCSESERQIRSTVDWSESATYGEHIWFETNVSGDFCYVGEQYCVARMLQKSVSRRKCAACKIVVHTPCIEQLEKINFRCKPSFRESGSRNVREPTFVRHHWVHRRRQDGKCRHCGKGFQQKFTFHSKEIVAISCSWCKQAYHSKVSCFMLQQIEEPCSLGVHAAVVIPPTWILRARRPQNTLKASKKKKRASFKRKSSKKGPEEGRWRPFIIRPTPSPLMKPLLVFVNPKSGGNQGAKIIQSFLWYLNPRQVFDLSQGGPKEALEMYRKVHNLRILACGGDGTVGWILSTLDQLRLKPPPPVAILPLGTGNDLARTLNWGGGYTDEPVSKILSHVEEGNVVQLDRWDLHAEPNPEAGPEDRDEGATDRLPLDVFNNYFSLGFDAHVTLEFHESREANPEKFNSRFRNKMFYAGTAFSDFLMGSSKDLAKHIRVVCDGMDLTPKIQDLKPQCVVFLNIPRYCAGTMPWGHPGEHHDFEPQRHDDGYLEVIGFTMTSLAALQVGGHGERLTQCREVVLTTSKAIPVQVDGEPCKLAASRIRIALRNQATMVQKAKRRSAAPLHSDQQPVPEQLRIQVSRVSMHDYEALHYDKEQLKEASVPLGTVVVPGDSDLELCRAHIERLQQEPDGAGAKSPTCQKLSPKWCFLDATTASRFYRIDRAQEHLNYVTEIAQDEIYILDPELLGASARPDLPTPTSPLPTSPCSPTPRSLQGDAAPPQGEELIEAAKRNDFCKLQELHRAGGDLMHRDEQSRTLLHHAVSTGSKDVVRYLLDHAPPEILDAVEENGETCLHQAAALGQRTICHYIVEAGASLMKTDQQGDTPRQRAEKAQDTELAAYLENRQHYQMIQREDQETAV
T2 sequence (P23743 whole entry): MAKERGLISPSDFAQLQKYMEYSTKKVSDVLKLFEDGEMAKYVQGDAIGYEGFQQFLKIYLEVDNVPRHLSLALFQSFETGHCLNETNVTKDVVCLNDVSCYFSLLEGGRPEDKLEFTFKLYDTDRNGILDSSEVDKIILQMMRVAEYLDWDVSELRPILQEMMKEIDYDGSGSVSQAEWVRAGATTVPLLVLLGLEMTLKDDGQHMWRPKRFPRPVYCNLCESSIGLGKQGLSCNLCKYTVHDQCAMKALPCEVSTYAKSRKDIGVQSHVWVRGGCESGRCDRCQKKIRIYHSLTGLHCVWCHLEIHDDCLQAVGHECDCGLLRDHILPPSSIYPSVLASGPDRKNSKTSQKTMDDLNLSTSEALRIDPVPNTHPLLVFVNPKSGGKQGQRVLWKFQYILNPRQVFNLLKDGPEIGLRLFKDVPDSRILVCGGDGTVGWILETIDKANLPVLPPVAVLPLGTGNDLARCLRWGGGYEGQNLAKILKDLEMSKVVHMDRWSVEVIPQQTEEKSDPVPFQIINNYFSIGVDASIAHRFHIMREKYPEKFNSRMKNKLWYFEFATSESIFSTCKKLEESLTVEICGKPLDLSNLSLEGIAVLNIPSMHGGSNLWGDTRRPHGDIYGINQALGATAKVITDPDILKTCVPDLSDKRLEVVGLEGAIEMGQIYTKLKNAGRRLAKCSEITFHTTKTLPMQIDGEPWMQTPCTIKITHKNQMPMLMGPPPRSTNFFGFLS

| IC50 [1] | IC50 [2] | Compound |
| --- | --- | --- |
| 78 nM | 2000 nM | CC(c1ccc2nccnc2c1)N1C[C@H](C)N(c2cc(=O)n(C)n3cc(CC#N)nc23)C[C@H]1C (mixture of isomers) [Compound A1, 2-(8-((2S,5R)-2,5-dimethyl-4-(1-(quinoxalin-6-yl)ethyl)piperazin-1-yl)-5-methyl-6-oxo-5,6-dihydroimidazo[1,2-b]pyridazin-2-yl)acetonitrile] |
| 16 nM | 3090 nM | CC(c1ccc2c(c1)OC(C)(C)CO2)N1C[C@H](C)N(c2c(F)c(=O)n(C)n3cc(CC#N)nc23)C[C@H]1C (mixture of isomers) [Compound A26, 2-(8-((2S,5R)-4-(1-(3,3-dimethyl-2,3-dihydrobenzo[b][1,4]dioxin-6-yl)ethyl)-2,5-dimethylpiperazin-1-yl)-7-fluoro-5-methyl-6-oxo-5,6-dihydroimidazo[1,2-b]pyridazin-2-yl)acetonitrile] |
| 10 nM | 858 nM | CC(c1ccc2c(c1)OC(C)(C)CO2)N1C[C@H](C)N(c2c(C#N)c(=O)n(C)n3cc(CC#N)nc23)C[C@H]1C (mixture of isomers) [Compound A27, 2-(cyanomethyl)-8-((2S,5R)-4-(1-(3,3-dimethyl-2,3-dihydrobenzo[b][1,4]dioxin-6-yl)ethyl)-2,5-dimethylpiperazin-1-yl)-5-methyl-6-oxo-5,6-dihydroimidazo[1,2-b]pyridazine-7-carbonitrile] |
| 35 nM | 1270 nM | CC(c1ccc2nccnc2c1)N1C[C@H](C)N(c2cc(=O)n(C)n3cc(CC#N)nc23)C[C@H]1C (single isomer, unassigned) [Compound A1a] |
| > 10000 nM | 2750 nM | CC(c1ccc2nccnc2c1)N1C[C@H](C)N(c2cc(=O)n(C)n3cc(CC#N)nc23)C[C@H]1C (single isomer, unassigned) [Compound A1b] |
| 7400 nM | 26800 nM | Cc1cnc2ccc(C(C)N3C[C@H](C)N(c4cc(=O)n(C)n5cc(CC#N)nc45)C[C@H]3C)cc2n1 (single isomer, unassigned) [Compound A2a] |
| 11 nM | 11600 nM | Cc1cnc2ccc(C(C)N3C[C@H](C)N(c4cc(=O)n(C)n5cc(CC#N)nc45)C[C@H]3C)cc2n1 (single isomer, unassigned) [Compound A2b] |
| 25 nM | 1310 nM | CC[C@H]1CN(C(C)c2ccc3nccnc3c2)[C@H](CC)CN1c1cc(=O)n(C)n2cc(COC)nc12 (single isomer, unassigned) [Compound A8a] |
| 1330 nM | 5080 nM | CC[C@H]1CN(C(C)c2ccc3nccnc3c2)[C@H](CC)CN1c1cc(=O)n(C)n2cc(COC)nc12 (single isomer, unassigned) [Compound A8b] |
| 3150 nM | 739 nM | CC[C@@H]1CN(c2cc(=O)n(C)n3cc(C=NOC)nc23)[C@@H](C)CN1C(C)c1ccc2nccnc2c1 (single isomer, unassigned) [Compound A9a] |
| 313 nM | 74 nM | CC[C@@H]1CN(c2cc(=O)n(C)n3cc(C=NOC)nc23)[C@@H](C)CN1C(C)c1ccc2nccnc2c1 (single isomer, unassigned) [Compound A9b] |
| > 10000 nM | 2170 nM | CC[C@@H]1CN(c2cc(=O)n(C)n3cc(C=NOC)nc23)[C@@H](C)CN1C(C)c1ccc2nccnc2c1 (single isomer, unassigned) [Compound A9c] |
| > 10000 nM | 211 nM | CC[C@@H]1CN(c2cc(=O)n(C)n3cc(C=NOC)nc23)[C@@H](C)CN1C(C)c1ccc2nccnc2c1 (single isomer, unassigned) [Compound A9d] |
| 16 nM | 966 nM | CC[C@@H]1CN(c2cc(=O)n(C)n3cc(CC#N)nc23)[C@@H](C)CN1C(C)c1ccc2nccnc2c1 (single isomer, unassigned) [Compound A13a] |
| 3610 nM | 4180 nM | CC[C@@H]1CN(c2cc(=O)n(C)n3cc(CC#N)nc23)[C@@H](C)CN1C(C)c1ccc2nccnc2c1 (single isomer, unassigned) [Compound A13b] |
| 6 nM | 217 nM | CC[C@H]1CN(C(C)c2ccc3nccnc3c2)[C@H](CC)CN1c1cc(=O)n(C)n2cc(CC#N)nc12 (single isomer, unassigned) [Compound A14a] |
| 358 nM | 1420 nM | CC[C@H]1CN(C(C)c2ccc3nccnc3c2)[C@H](CC)CN1c1cc(=O)n(C)n2cc(CC#N)nc12 (single isomer, unassigned) [Compound A14b] |

| IC50 [1] | IC50 [2] | Compound |
| --- | --- | --- |
| 1230 nM | 4650 nM | CC[C@@H]1CN(c2cc(=O)n(C)n3cc(COC)nc23)[C@@H](C)CN1C(C)c1ccc(C(F)(F)F)cc1F (single isomer, unassigned) [Compound A16a] |
| > 10000 nM | 8460 nM | CC[C@@H]1CN(c2cc(=O)n(C)n3cc(COC)nc23)[C@@H](C)CN1C(C)c1ccc(C(F)(F)F)cc1F (single isomer, unassigned) [Compound A16b] |
| 108 nM | 171 nM | CC[C@@H]1CN(c2cc(=O)n(C)n3cc(CC#N)nc23)[C@@H](C)CN1C(C)c1ccc(C(F)(F)F)cc1F (single isomer, unassigned) [Compound A17a] |
| 4720 nM | 823 nM | CC[C@@H]1CN(c2cc(=O)n(C)n3cc(CC#N)nc23)[C@@H](C)CN1C(C)c1ccc(C(F)(F)F)cc1F (single isomer, unassigned) [Compound A17b] |
| 19 nM | 2890 nM | CC(c1ccc2c(c1)OC(C)(C)CO2)N1C[C@H](C)N(c2c(F)c(=O)n(C)n3cc(CC#N)nc23)C[C@H]1C (single isomer, unassigned) [Compound A26a] |
| 2140 nM | 2110 nM | CC(c1ccc2c(c1)OC(C)(C)CO2)N1C[C@H](C)N(c2c(F)c(=O)n(C)n3cc(CC#N)nc23)C[C@H]1C (single isomer, unassigned) [Compound A26b] |
| 3 nM | 2250 nM | CC(c1ccc2c(c1)OC(C)(C)CO2)N1C[C@H](C)N(c2c(C#N)c(=O)n(C)n3cc(CC#N)nc23)C[C@H]1C (single isomer, unassigned) [Compound A27a] |
| 579 nM | 486 nM | CC(c1ccc2c(c1)OC(C)(C)CO2)N1C[C@H](C)N(c2c(C#N)c(=O)n(C)n3cc(CC#N)nc23)C[C@H]1C (single isomer, unassigned) [Compound A27b] |
| 20 nM | 44 nM | CC[C@H]1CN(C(C)c2ccc(C3CC3)nc2)[C@H](CC)CN1c1cc(=O)n(C)n2cc(CC#N)nc12 (single isomer, unassigned) [Compound A37a] |
| 538 nM | 260 nM | CC[C@H]1CN(C(C)c2ccc(C3CC3)nc2)[C@H](CC)CN1c1cc(=O)n(C)n2cc(CC#N)nc12 (single isomer, unassigned) [Compound A37b] |
| 21 nM | 43 nM | CC[C@H]1CN(C(C)c2ccc(C(C)C)nc2)[C@H](CC)CN1c1cc(=O)n(C)n2cc(CC#N)nc12 (single isomer, unassigned) [Compound A38a] |
| 475 nM | 423 nM | CC[C@H]1CN(C(C)c2ccc(C(C)C)nc2)[C@H](CC)CN1c1cc(=O)n(C)n2cc(CC#N)nc12 (single isomer, unassigned) [Compound A38b] |
| 44 nM |  | CC[C@@H]1CN(c2cc(=O)n(C)n3cc(CC#N)nc23)[C@@H](C)CN1C(C)c1ccc2ncsc2n1 (single isomer, unassigned) [Compound A80a] |
| 8160 nM |  | CC[C@@H]1CN(c2cc(=O)n(C)n3cc(CC#N)nc23)[C@@H](C)CN1C(C)c1ccc2ncsc2n1 (single isomer, unassigned) [Compound A80b] |
| 1260 nM |  | CC[C@H]1CN(C(C)c2ccc3ncsc3n2)[C@H](CC)CN1c1c(F)c(=O)n(C)n2cc(CC#N)nc12 (single isomer, unassigned) [Compound A81a] |
| 32 nM |  | CC[C@H]1CN(C(C)c2ccc3ncsc3n2)[C@H](CC)CN1c1c(F)c(=O)n(C)n2cc(CC#N)nc12 (single isomer, unassigned) [Compound A81b] |
